In patent publication US8703934B2, “Substituted 4-amino-3,5-dicyano-2-thiopyridines and use thereof” (Bayer Intellectual Property GmbH, priority 2006, dated 2014):

Columns and labels:
Assay type in all cases: cell-based
adenosine A2a receptor = target: T1, adenosine A2a receptor (Homo sapiens, UniProt P29274); test: Indirect determination of adenosine agonism by way of gene expression (luciferase, CHO cells), A2a; settings: CHO cells stably transfected with A2a receptor cDNA; 50% of maximum luciferase stimulation
T1 construct: expressed in transfected cells; host or cells: CHO (Chinese Hamster Ovary)
T1 sequence (P29274 whole entry): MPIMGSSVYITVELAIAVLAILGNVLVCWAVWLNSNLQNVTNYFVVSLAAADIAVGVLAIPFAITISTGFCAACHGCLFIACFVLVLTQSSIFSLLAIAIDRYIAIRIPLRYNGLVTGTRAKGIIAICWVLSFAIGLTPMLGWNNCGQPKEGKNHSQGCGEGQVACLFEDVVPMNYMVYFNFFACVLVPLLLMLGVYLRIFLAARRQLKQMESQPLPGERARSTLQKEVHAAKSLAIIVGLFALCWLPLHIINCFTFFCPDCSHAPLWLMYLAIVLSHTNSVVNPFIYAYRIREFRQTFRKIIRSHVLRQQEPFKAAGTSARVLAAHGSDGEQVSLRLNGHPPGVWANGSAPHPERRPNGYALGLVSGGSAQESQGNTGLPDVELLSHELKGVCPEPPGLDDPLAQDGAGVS
Excerpt: (§1) B-1. Indirect Determination of the Adenosine Agonism by Way of Gene Expression
(§2) Cells of the CHO (Chinese Hamster Ovary) permanent cell line are transfected stably with the cDNA for the adenosine receptor subtypes A1, A2a and A2b. The adenosine A1 receptors are coupled to the adenylate cyclase by way of G, proteins, while the adenosine A2a and A2b receptors are coupled by way of Gs proteins. In correspondence with this, the formation of cAMP in the cell is inhibited or stimulated, respectively. After that, expression of the luciferase is modulated by way of a cAMP-dependent promoter. The luciferase test is optimized, with the aim of high sensitivity and reproducibility, low variance and good suitability for implementation on a robot system, by varying several test parameters, such as cell density, duration of the growth phase and the test incubation, forskolin concentration and medium composition. The following test protocol is used for pharmacologically characterizing cells and for the robot-assisted substance screening:
(§3) The stock cultures are grown, at 37° C. and under 5% CO2, in DMEM/F12 medium containing 10% FCS (fetal calf serum) and in each case split 1:10 after 2-3 days. The test cultures are seeded in 384-well plates with 2000 cells per well and grown at 37° C. for approx. 48 hours. The medium is then replaced with a physiological sodium chloride solution (130 mM sodium chloride, 5 mM potassium chloride, 2 mM calcium chloride, 20 mM HEPES, 1 mM magnesium chloride hexahydrate, 5 mM sodium bicarbonate, pH 7.4). The substances to be tested, which are dissolved in DMSO, are pipetted into the test cultures (maximum final concentration of DMSO in the test mixture: 0.5%) in a dilution series of from 5×10^−11M to 3×10^−6M (final concentration). 10 minutes later, forskolin is added to the A1 cells and all the cultures are subsequently incubated at 37° C. for four hours. After that, 35 μl of a solution which is composed of 50% lysis reagent (30 mM disodium hydrogenphosphate, 10% glycerol, 3% TritonX100, 25 mM TrisHCl, 2 mM dithiotreitol (DTT), pH 7.8) and 50% luciferase substrate solution (2.5 mM ATP, 0.5 mM luciferin, 0.1 mM coenzyme A, 10 mM tricine, 1.35 mM magnesium sulfate, 15 mM DTT, pH 7.8) are added to the test cultures, which are shaken for approx 1 minute and the luciferase activity is measured using a camera system. The EC50 values are determined, i.e., the concentrations at which 50% of the luciferase answer is inhibited in the case of the A1 cell, and, respectively, 50% of the maximum stimulation with the corresponding substance is achieved in the case of the A2b and A2a cells. […] Pharmacol., 357 (1998), 1-9).

adenosine A2b receptor = target: T2, adenosine A2b receptor (Homo sapiens, UniProt P29275); test: Indirect determination of adenosine agonism by way of gene expression (luciferase, CHO cells), A2b; settings: CHO cells stably transfected with A2b receptor cDNA; 50% of maximum luciferase stimulation
T2 construct: expressed in transfected cells; host or cells: CHO (Chinese Hamster Ovary)
T2 sequence (P29275 1-332): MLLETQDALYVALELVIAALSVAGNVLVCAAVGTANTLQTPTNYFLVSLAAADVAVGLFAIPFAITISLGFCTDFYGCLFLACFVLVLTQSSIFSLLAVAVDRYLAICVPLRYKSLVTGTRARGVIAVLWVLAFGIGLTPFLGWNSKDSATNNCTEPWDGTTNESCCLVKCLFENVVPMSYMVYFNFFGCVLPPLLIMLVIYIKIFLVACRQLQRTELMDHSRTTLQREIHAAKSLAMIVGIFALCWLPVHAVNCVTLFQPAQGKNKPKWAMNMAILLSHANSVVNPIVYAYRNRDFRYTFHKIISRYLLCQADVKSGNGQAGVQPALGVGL
Excerpt: as §1, §2, §3

adenosine A1 receptor = target: T3, adenosine A1 receptor (Homo sapiens, UniProt P30542); test: Indirect determination of adenosine agonism by way of gene expression (luciferase, CHO cells), A1; settings: CHO cells stably transfected with A1 receptor cDNA; 1 μM forskolin; 50% inhibition of luciferase answer
T3 construct: expressed in transfected cells; host or cells: CHO (Chinese Hamster Ovary)
T3 sequence (P30542 1-326): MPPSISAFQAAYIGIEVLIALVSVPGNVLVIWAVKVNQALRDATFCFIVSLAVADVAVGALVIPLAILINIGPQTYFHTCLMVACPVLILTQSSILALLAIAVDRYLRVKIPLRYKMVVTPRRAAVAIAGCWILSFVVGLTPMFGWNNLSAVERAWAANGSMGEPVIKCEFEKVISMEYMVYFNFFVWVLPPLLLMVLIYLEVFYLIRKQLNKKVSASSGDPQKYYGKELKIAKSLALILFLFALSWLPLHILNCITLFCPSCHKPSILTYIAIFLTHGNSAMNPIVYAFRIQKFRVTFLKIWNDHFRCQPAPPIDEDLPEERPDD
Excerpt: as §1, §2, §3

In the case of `N#Cc1c(N)nc(SCc2ccc[n+]([O-])c2)c(C#N)c1N1CCCCC1` [Example 27], the EC50 (adenosine A2a receptor) is reported as 0.063 µM, the EC50 (adenosine A2b receptor) is reported as 0.0009 µM and the EC50 (adenosine A1 receptor) is reported as 0.3 nM.
`N#Cc1cnc(SCc2csc(-c3ccc(Cl)cc3)n2)c(C#N)c1N1CCCCC1` [Example 34, 2-({[2-(4-Chlorophenyl)-1,3-thiazol-4-yl]methyl}thio)-4-(piperidin-1-yl)pyridine-3,5-dicarbonitrile] was tested, and the EC50 (adenosine A2a receptor) was > 3 µM, the EC50 (adenosine A2b receptor) was > 3 µM and the EC50 (adenosine A1 receptor) was 46 nM.
With `N#Cc1c(N)nc(SCc2csc(Nc3ccc(F)cc3)n2)c(C#N)c1N1CCCCC1` [Example 6] the EC50 (adenosine A2a receptor) was 1.81 µM, the EC50 (adenosine A2b receptor) was > 3 µM and the EC50 (adenosine A1 receptor) was 45 nM.
`N#Cc1c(N)nc(SCc2csc(-c3ccc(Cl)cc3)n2)c(C#N)c1N1CCC(O)CC1` [Example 1, 2-Amino-6-({[2-(4-chlorophenyl)-1,3-thiazol-4-yl]methyl}thio)-4-(4-hydroxypiperidin-1-yl)pyridine-3,5-dicarbonitrile] was tested, and the EC50 (adenosine A2a receptor) was 0.686 µM, the EC50 (adenosine A2b receptor) was 0.116 µM and the EC50 (adenosine A1 receptor) was 1.3 nM.
In the case of `N#Cc1c(SCc2csc(-c3ccc(Cl)cc3)n2)nc(N2CCC(O)C2)c(C#N)c1N1CCCCC1` (stereo not drawn) [Example 30], the EC50 (adenosine A2a receptor) is reported as 1.03 µM, the EC50 (adenosine A2b receptor) is reported as 0.056 µM and the EC50 (adenosine A1 receptor) is reported as 5.7 nM.
With `N#Cc1c(N)nc(SCc2csc(-c3ccc(Cl)cc3)n2)c(C#N)c1N1CCCCC1` [Example 2] the EC50 (adenosine A2a receptor) was 0.385 µM, the EC50 (adenosine A2b receptor) was 0.044 µM and the EC50 (adenosine A1 receptor) was 0.5 nM.
In the case of `CN1CCN(c2c(C#N)c(N)nc(SCc3csc(-c4ccc(Cl)cc4)n3)c2C#N)CC1` [Example 4], the EC50 (adenosine A2a receptor) is reported as > 3 µM, the EC50 (adenosine A2b receptor) is reported as > 3 µM and the EC50 (adenosine A1 receptor) is reported as 12 nM.
In the case of `COc1nc(SCc2csc(-c3ccc(Cl)cc3)n2)c(C#N)c(N2CCCCC2)c1C#N` [Example 35, 2-({[2-(4-Chlorophenyl)-1,3-thiazol-4-yl]methyl}thio)-6-methoxy-4-(piperidin-1-yl)pyridine-3,5-dicarbonitrile], the EC50 (adenosine A2a receptor) is reported as > 3 µM, the EC50 (adenosine A2b receptor) is reported as > 3 µM and the EC50 (adenosine A1 receptor) is reported as 8.6 nM.
`N#Cc1c(N)nc(SCc2coc(-c3ccc(Cl)cc3)n2)c(C#N)c1N1CCCCC1` [Example 37, 2-Amino-6-({[2-(4-chlorophenyl)-1,3-oxazol-4-yl]methyl}sulfanyl)-4-(piperidin-1-yl)pyridine-3,5-dicarbonitrile] was tested, and the EC50 (adenosine A2a receptor) was 0.357 µM, the EC50 (adenosine A2b receptor) was 0.403 µM and the EC50 (adenosine A1 receptor) was 2.2 nM.
